Data as given in patent publication US20070148211A1, “PROCESSES FOR MAKING PARTICLE-BASED PHARMACEUTICAL FORMULATIONS FOR ORAL ADMINISTRATION” (Acusphere, Inc., priority 2005, published 2007).

Test: Visual evaluation of dispersibility of celecoxib powders after reconstitution in 0.01N HCl
Format: physicochemical
Method: The unprocessed celecoxib, the blended celecoxib, and the jet milled blended celecoxib were analyzed using visual inspection and by light microscopy (performed on a hemacytometer slide) following reconstitution in 0.01N HCl. FIGS. 5A, 5B, and 5C show the particles of the bulk celecoxib, the blended powder, and the jet-milled blended powder, respectively. The quality of the suspensions are described in Table 2.

Compound: Cc1ccc(-c2cc(C(F)(F)F)nn2-c2ccc(S(N)(=O)=O)cc2)cc1 [Celecoxib/no blending or jet milling, celecoxib]
- Visual Evaluation of Suspension: Poor suspension containing many
